According to patent publication US20230288433A1, “DETECTION OF PHOSPHOINOSITIDES IN BLOOD CELLS AS A BIOMARKER FOR ALPHA SYNUCLEIN ASSOCIATED PATHOLOGIES AND A METHOD OF TREATMENT OF PARKINSON'S DISEASE AND THE RELATED NEURODEGENERATIONS” (YISSUM RESEARCH DEVELOPMENT COMPANY OF THE HEBREW …, priority 2021, published 2023):

What was measured:
Format in all cases: cell-based
SH-SY5Y cells [1] = assay: PI4,5P2 levels by FACS in Tet-on inducible α-Syn SH-SY5Y cells
Experimental: Analysis was performed as previously described with some modifications. Cells were suspended and washed in clear DMEM; followed by 20 minutes fixation in 2% (v/w) paraformaldehyde at 4° C.; and permeabilization in 0.2% saponin in 1% BSA (w/v) for 15 minutes at 4° C. Cells were then incubated with anti α-Syn antibody (MJFR1, 1:2,000) and anti PI4,5P2 antibody (1:200, see Table 2) for 90 minutes at 4° C. with gentle rolling; washed and probed with the respective secondary antibody for 30 minutes at room temperature. FACS analysis in SK-mel2 cells was performed 7-14 days following viral transduction. During this time effective α-Syn knockdown was confirmed using rt-PCR and Western blotting. HEK 293T cells were analyzed by FACS forty-eight hours from transfection. Analyses were performed using BD LSRFortessa Cell Analyzer, equipped with 5 lasers (355, 405, 488, 561 and 640 nm) and the FLOWJO, LLC software. Mock-GFP, Sj-1 or PIPKIγ expression were directly detected at 488 nm based on a GFP-tag. […] A total of 2,000-4,000 gated cells were counted in each experiment unless indicated differently.
To test the mechanism through which α-Syn increases cellular PI4,5P2 levels, the inventors tested the potential involvement of Nir2-expression. […] 72 hours post DNA transfection, PI4,5P2 levels were determined by FACS. […] PI4,5P2 levels were determined by FACS following 3 days of incubation with doxycycline. […]

α-Syn = α-Syn expression by qPCR in Tet-on inducible SH-SY5Y cells; settings: with versus without doxycycline for 72 hours
Experimental: FIGS. 4A-4J include micrographs and graphs showing that α-Syn effect to elongate axons and collaterals is mediated through PI4,5P2. (4A) PI4,5P2 levels determined by FACS, in HEK 293T cells, following 48 hours from cell transfection with α-Syn and/or Sj-1 phosphatase, as indicated. Mean±SD of two independent experiments, n>3,000 cells in each treatment; P<0.05, one-way ANOVA. (4B) PI4,5P2 levels determined by FACS in HEK 293T cells transfected with α-Syn and/or PIPKIγ as indicated. Mean±SD of two independent experiments, n>3,000 cells in each treatment; P<0.05, one-way ANOVA. […] GFP signal was captured by direct fluorescence. […] (4E) Total length of collaterals per axon (in μm); and (4F) PI4,5P2 levels within the axon and its collaterals (per axon area) quantified by Fiji program. […] Western blot showing mCherry Nir2 signal detected with anti Nir2 ab (Abcam). PI4,5P2 levels determined by FACS. […] PI4,5P2 levels determined by FACS. […] (4I) Quantitative PCR (qPCR) detection of α-Syn following its induced expression in SH-SYSY cells without and with the addition of doxycycline for 72 hours. α-Syn mRNA levels normalized to the levels of G6PD gene detected in the same sample. (4J) Quantitative detection of NIR2 expression by qPCR in these cells. […]

SH-SY5Y cells [2] = assay: 568-Tf endocytosis by ICC in Tet-on inducible α-Syn SH-SY5Y cells; settings: doxycycline 72 hours; cells not induced set at 100%

## C[C@H]1c2cccc(O)c2C(=O)C2=C(O)[C@]3(O)C(=O)C(C(N)=O)=C(O)[C@@H](N(C)C)[C@@H]3[C@@H](O)[C@@H]21 [doxycycline]
SH-SY5Y cells [1]; FACS after 3 days of doxycycline, shCntrl cells
  PI4,5P2 signal: ~146%
SH-SY5Y cells [1]; doxycycline 72 hours, cells not induced set at 100%
  PI4,5P2 levels: 151%
α-Syn
  α-Syn levels of expression: ~25 folds
SH-SY5Y cells [2]
  internalization of 568-Tf: 133%
